Test results published in publication PMC4569415, “Pro-Oxidant Activity of Amine-Pyridine-Based Iron Complexes Efficiently Kills Cancer and Cancer Stem-Like Cells” (PLoS ONE, 2015).
“And” between values parts separate entries of the source, which are not always exact repeats. Identical values can stand only once.

Assays:
1BR3G = experiment: MTT cytotoxicity assay; type: cell-based; settings: Homo sapiens, 48 h of treatment, non malignant cells
Description: (§1) The cytotoxic activity of the compounds was determined by MTT reduction assay as described. Compounds were diluted in Milli-Q water to obtain 1 mmol/L stock solutions. Appropriate aliquots of these solutions were diluted in the corresponding cell culture medium to obtain the final working concentrations. Aliquots of 5000 1BR3G cells, 6000 MCF-7, 6000 PC-3 cells, 10 000 CAPAN-1 cells, 4000 MCF 10A cells, 4000 HMLE cells or 4000 CCD-18Co cells were seeded in 96-well plates, 24 h prior to the treatments. Hematological cell lines were seeded at 400 000 cells/mL. Cells were treated with the corresponding compound at concentrations ranging from 0 to 100 μmol/L for 48 h. Three replicates for each compound were used. The IC50 was established for each compound by standard non-linear regression and curve fitting using GraphPad Prism (Graph Pad software Inc., La Jolla, CA, USA).

CCD-18Co = experiment: MTT cytotoxicity assay; type: cell-based; settings: Homo sapiens, 48 h of treatment, non malignant cells
Description: as §1

HMLE = experiment: MTT cytotoxicity assay; type: cell-based; settings: Homo sapiens, 48 h of treatment, non malignant cells
Description: as §1

JURKAT = experiment: MTT cytotoxicity assay; type: cell-based; settings: Homo sapiens, 48 h of treatment
Description: as §1

MCF-10A = experiment: MTT cytotoxicity assay; type: cell-based; settings: Homo sapiens, 48 h of treatment, non malignant cells
Description: as §1

PC-3 = experiment: MTT cytotoxicity assay; type: cell-based; settings: Homo sapiens, 48 h of treatment
Description: as §1

Z-138 = experiment: MTT cytotoxicity assay; type: cell-based; settings: Homo sapiens, 48 h of treatment
Description: as §1

[1] = test system: human leukemia, lymphoma and glioma cancer cells; experiment: MTT cell viability at 10 μmol/L, cell line panel; type: cell-based; settings: 48 h
Description: as §1
Fig 2 Cell viability assay. (A) Cytotoxic activity of compounds 1, 2, and 5 against cancer cells. The indicated cell lines were treated for 48 h with ligands (10 μmol/L) and cell viability was measured with the MTT assay. Data represents the percentage of viable cells relative to untreated cells (control). (B) Cytotoxicity of doxorubicin and compounds 1, 2 and 5 against CS-like cells. CS-like HMLER-shEcad cells and non-CS-like HMLER isogenic parental cells were treated for 48 h with graded concentrations of doxorubicin, 1, 2 and 5. Cell viability was measured with the MTT assay. For each treatment, the percentage of viable cells relative to untreated cells is indicated. Data represents the mean±SD of 3 independent experiments performed in triplicate.

MCF-7 cells [2] = experiment: Colony formation (clonogenic) assay; type: cell-based, human; settings: 10 μmol/L
Description: MCF-7 cells were seeded in 12-well plates. […] Subsequently, cells were washed with PBS, collected with trypsin and plated at low density (3000 cells in a […]). Cells were allowed to divide and form colonies for 7–10 days; after which, colonies were fixed and stained with 2% methylene blue in 50% ethanol. The number of colonies in each plate was determined using the Alpha Innotech Imaging system (Alpha Innotech, San Leandro, CA).

CAPAN-1 cells = experiment: ROS measurement with H2DCFDA; type: cell-based, human; settings: for fold increase of ROS levels: 5 h; for H2DCFDA fluorescence (ROS): 5.8 at 0 μmol/L; for reduction of compound-induced ROS levels by NAC: CAPAN-1, NAC 5 mmol/L
Description: (§2) Cellular ROS content was determined using the 2′,7′-dichlorodihydrofluorescein diacetate probe (H2DCFDA). Cells were seeded in 24-well plates (50 000 cells/well) in phenol red-free DMEM 24 h prior to treatments. Cells were treated with different concentrations of compound 1, 2 and 5 (2.5, 5 or 10 μmol/L) or vehicle alone as a control, for 5 or 24 hours at 37°C. In some experiments, cells were co-treated with the compounds plus 5 mmol/L NAC. After treatments, cells were washed with PBS and incubated with 1 μmol/L H2DCF-DA in PBS for 30 minutes in the dark. After washing, cells were collected with trypsin and analyzed by flow cytometry using a FACS-Calibur flow cytometer (Becton-Dickinson®, Immunofluorometry Systems, Mountain View, CA, USA). The geometric mean fluorescence intensity of 10 000 cells was established using CellQuestTM software (Becton Dickinson). The fluorescence fold-increase versus untreated cells was determined for each treatment.

[3] = test system: supercoiled pUC18 plasmid DNA; experiment: DNA cleavage by agarose gel electrophoresis; type: biochemical; settings: 25 μM, 1 h, 37°C
Description: DNA cleavage was monitored by agarose gel electrophoresis. A stock solution of pUC18 DNA was freshly prepared in Milli-Q water at a concentration of […] (1512 μmol/L nucleotides; 756 μmol/L bp). Reactions were performed by mixing 0.5 μl of pUC18 with appropriate aliquots of the compounds and 1 μL of activating agent solution (35% wt/vol H2O2 in H2O). Cacodylate buffer (0.1 M, pH 6.0) was added to the mixture to give a final volume of 20 μl. The final concentration of pUC18 DNA was 37.8 μmol/L in nucleotides (18.9 μmol/L bp). Samples were incubated for 1 h at 37°C; reactions were quenched by adding 6 μL of a buffer solution consisting of bromophenol blue (0.25%), xylene cyanol (0.25%), and glycerol (30%). Subsequently, the samples were subjected to electrophoresis in 0.8% agarose gels in 0.5×TBE buffer (0.045 mol/L Tris, 0.045 mol/L boric acid, and 1 mmol/L EDTA) at 100 V for 1 h and 40 min. Gels were stained with ethidium bromide (10 mg/mL in TBE) for 15 min and visualized under UV transillumination. DNA bands were captured using the ProgRes CapturePro 2.7 system and the intensity of each band was quantified with the GelQuant version 2.7 software (DNR Bio-Imaging Systems, Jerusalem, Israel) using a correction factor of 1.31 to compensate for the reduced ethidium bromide uptake of supercoiled plasmid pUC18 DNA [47]. The proportion of different forms of plasmid DNA was established for each treatment. To test the involvement of ROS in strand scission and possible complex–DNA interaction sites, various ROS scavengers and groove binders were added to the reaction mixtures. The scavengers used were Tiron (10 mmol/L), sodium azide (0.4 mol/L), and dimethyl sulfoxide (DMSO, 3 μL). The groove binders used were methyl green (20 mmol/L) and Hoechst (40 μmol/L).

JURKAT cells = experiment: ROS measurement with H2DCFDA; type: cell-based, human; settings: 10 μmol/L, 24 h
Description: as §2

MCF-7 cells [4] = experiment: ROS measurement with H2DCFDA; type: cell-based, human; settings: MCF-7, 10 μmol/L, 24 h
Description: as §2

| Compound | IC50 (1BR3G) [µM] | IC50 (CCD-18Co) [µM] | IC50 (HMLE) [µM] | IC50 (JURKAT) [µM] | IC50 (MCF-10A) [µM] | IC50 (PC-3) [µM] | IC50 (Z-138) [µM] | antiproliferative activity at 10 μmol/L [1] | reduction of colony number vs control (MCF-7 cells [2]; 3 h exposure) [%] | reduction of colony number vs control (MCF-7 cells [2]; 24 h exposure) | fold increase of ROS levels (CAPAN-1 cells; CAPAN-1, 2.5 μmol/L) [fold] | fold increase of ROS levels (CAPAN-1 cells; CAPAN-1, 5 μmol/L) [fold] | fold increase of ROS levels (CAPAN-1 cells; CAPAN-1, 10 μmol/L) [fold] | reduction of compound-induced ROS levels by NAC (CAPAN-1 cells) [%] | Proportion of plasmid DNA Form I (supercoiled) ([3]; + H2O2) [%] | Proportion of plasmid DNA Form II (open) ([3]; + H2O2) [%] | Proportion of plasmid DNA Form I (supercoiled) ([3]; absence of H2O2) [%] | Proportion of plasmid DNA Form II (open) ([3]; absence of H2O2) [%] | further results |
| --- | --- | --- | --- | --- | --- | --- | --- | --- | --- | --- | --- | --- | --- | --- | --- | --- | --- | --- | --- |
| c1ccc(CN2CCC[C@H]2[C@@H]2CCCN2Cc2ccccn2)nc1 [Compound 1] | 12.7 ± 1.6 | 27 ± 4.4 | 6.4 ± 4 | 15.1 ± 3.1 | 18.8 ± 2.9 | 8.5 ± 1.4 | 4.8 ± 1.2 | high antiproliferative activity | 0 | 57% and 56.6% | 1.73 | 2.01 | 2.61 | 31.1 | 52.8 | 47.2 | 84.3 | 15.7 | reduction of colony number vs control (MCF-7 cells [2]; 5 h exposure): 18.7%; reduction of colony number vs control (MCF-7 cells [2]; 12 h exposure): 40.5%; H2DCFDA fluorescence (ROS) (CAPAN-1 cells; CAPAN-1, 2.5 μmol/L, 24 h): 10.9; H2DCFDA fluorescence (ROS) (CAPAN-1 cells; CAPAN-1, 5 μmol/L, 24 h): 11.79; H2DCFDA fluorescence (ROS) (CAPAN-1 cells; CAPAN-1, 10 μmol/L, 24 h): 32.6 |
| CN(C)c1ccnc(CN2CCC[C@H]2[C@@H]2CCCN2Cc2cc(N(C)C)ccn2)c1 [Compound 2] | 7.5 ± 0.5 | 20.7 ± 0.3 | 7 ± 0.3 | 7.2 ± 1.9 | 6.5 ± 1.3 | 3.8 ± 0.2 | 4.4 ± 0.3 | high antiproliferative activity | 39 | almost abolished | 1.39 | 1.66 | 2.53 | 26.8 | 56.8 | 43.2 | 91.3 | 8.7 | ROS induction with FeCl2 co-incubation (CAPAN-1 cells; CAPAN-1, compound 10 μmol/L 24 h, FeCl2 100 μmol/L co-incubation): abolished ROS induction; increase in ROS levels in FeCl2-pretreated vs non-pretreated cells (CAPAN-1 cells; CAPAN-1, compound 10 μmol/L 24 h, FeCl2 100 μmol/L pre-incubation): 1.5 fold; ROS levels versus control cells (JURKAT cells): 1.94 folds; increase in ROS levels (MCF-7 cells [4]): 7 fold |
| CN1CCN(Cc2ccccn2)CCN(Cc2ccccn2)CC1 [Compound 5] | 18 ± 4.2 | 53.5 ± 3.5 | 6.1 ± 0.1 | 5.4 ± 1.3 | 23.8 ± 1.3 | 7.7 ± 0.3 | 2.9 ± 0.4 | high antiproliferative activity | – | 53% | – | – | – | – | 53.3 | 46.7 | 92.3 | 7.7 | intracellular ROS levels vs untreated cells (CAPAN-1 cells; CAPAN-1, 10 μmol/L, 24 h): 2.4 fold |
